Legend:
CDK1 = molecular target: T1, CDK1 (Homo sapiens, UniProt P06493); test: CDK-1 kinase screening assay (33P-ATP FlashPlate); format: biochemical; settings: human CDK1 with cyclin B; 10 μM ATP; 1 hr at 30° C
T1 construct: purchased New England Biolabs, Beverly, Mass; 6020; host or cells: insect cells

HCT-116 colon carcinoma = test: Cell Proliferation Inhibition Assay (14C-thymidine incorporation), HCT-116; format: cell-based; settings: Homo sapiens, HCT-116, HCT-116 cells;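 further: proliferation measured as methyl 14C-thymidine uptake into new DNA, counted in 96-well scintillating microplates, compared with DMSO-only control wells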
Aurora-A = molecular target: T2, Aurora-A (Mus musculus, UniProt P97477); test: Aurora-A kinase screening assay (33P-ATP FlashPlate); format: biochemical; settings: 10 μM ATP, 1 hr at 30° C;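 further: His-tagged mouse Aurora-A phosphorylating a biotinylated peptide captured on streptavidin plates, read as 33P uptake by scintillation counting, 1% DMSO, inhibition scaled between per-plate maximum and minimum signals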
T2 construct: polyhistidine (N)
T2 sequence (P97477 1-395): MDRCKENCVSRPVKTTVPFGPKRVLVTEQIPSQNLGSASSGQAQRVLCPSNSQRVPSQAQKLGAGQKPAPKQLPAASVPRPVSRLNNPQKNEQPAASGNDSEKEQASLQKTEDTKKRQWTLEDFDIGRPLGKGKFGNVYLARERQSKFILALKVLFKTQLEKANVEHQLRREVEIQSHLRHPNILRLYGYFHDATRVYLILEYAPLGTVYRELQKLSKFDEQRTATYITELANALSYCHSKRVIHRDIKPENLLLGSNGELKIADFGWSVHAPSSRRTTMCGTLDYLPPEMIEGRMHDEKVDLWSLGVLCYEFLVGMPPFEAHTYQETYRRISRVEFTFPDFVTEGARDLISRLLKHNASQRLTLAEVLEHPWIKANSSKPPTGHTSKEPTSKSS

HER2 = molecular target: T3, HER2 (Homo sapiens, UniProt P04626); test: HER2 kinase screening assay (33P-ATP FlashPlate); format: biochemical; settings: GST-HIS6 HER-2 aa 679 to 1255; 10 μM ATP; 1 hr at 30° C;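 further: Biotin-poly(GT) 4:1 peptide captured on streptavidin FlashPlate, 33P transfer from γ-ATP read by scintillation counting, lower incorporation means inhibition, 1% DMSO final, 100 µL reaction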
T3 construct: GST (Glutathione-S-Transferase) (N); HIS6 (N); thrombin cleavage site (N); purchased Proqinase, Freiburg, Germany

Lyn kinase = molecular target: T4, Lyn kinase (Homo sapiens, UniProt P07948); test: Lyn Kinase Assay; format: biochemical; settings: 5 μM ATP
T4 construct: purchased Upstate Biotechnology, Lake Placid, N.Y
Protocol: Test compound in 100% DMSO (0.5 μL) was added to the appropriate wells. Diluted Lyn kinase (human) (Accession Number EMBL M16038) (Upstate Biotechnology, Lake Placid, N.Y.) (diluted in a buffer consisting of 50 mM Tris at pH 7.5, 0.1 mM EGTA, Sodium Vanadate (0.1 mM), β-mercaptoethanol (0.1%) and 1 mg/mL bovine serum albumin) (2.5 μL) was added to the wells to initiate the reactions.
The reaction plates were incubated at 30° C. for 40 min. The reaction was terminated by the addition of a 3% phosphoric acid solution (5 μL). The reaction product (10 μL) was spotted onto a P30 filtermat and washed for 5 minutes in phosphoric acid (75 mM). The wash sequence was repeated two more times, followed with one final wash in methanol. The plates were then dried, sealed and read on the TopCount scintillation counter after adding 30 μL scintillation fluid.
(§1) A maximum and minimum signal for the assay was determined on each plate. The percent inhibition of a test compound was calculated according to the formula: […]
For a series of test concentrations, the IC50 was derived by graphing percent inhibition against the log of the concentrations tested for a given compound with results shown in Table 3
(§2) For compounds with multiple values, each value represents a separate assay result.

VEGF-R2 = molecular target: T5, VEGF-R2 (Rattus norvegicus, UniProt O08775); test: VEGF-R2 kinase screening assay (33P-ATP FlashPlate); format: biochemical; settings: rat VEGF-R2 kinase domain; 10 μM ATP; 1 hr at 30° C;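 further: Read-out is ³³P incorporation from ³³P-γ-ATP into biotinylated peptide substrate captured on streptavidin FlashPlate, counted by scintillation, 1% DMSO final, inhibition scaled between per-plate maximum and minimum signals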
T5 construct: polyhistidine (N)

RET = molecular target: T6, RET (Homo sapiens, UniProt P07949); test: RET kinase screening assay (33P-ATP FlashPlate); format: biochemical; settings: human RET kinase domain; 10 μM ATP; 1 hr at 30° C;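 further: biotinylated peptide substrate captured on streptavidin FlashPlate, 33P phosphate transfer read by scintillation counting, 1% DMSO, lower incorporation means inhibition, percent relative to per-plate maximum and minimum signals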
T6 construct: polyhistidine (N)
T6 sequence (P07949 658-1114 limits assumed): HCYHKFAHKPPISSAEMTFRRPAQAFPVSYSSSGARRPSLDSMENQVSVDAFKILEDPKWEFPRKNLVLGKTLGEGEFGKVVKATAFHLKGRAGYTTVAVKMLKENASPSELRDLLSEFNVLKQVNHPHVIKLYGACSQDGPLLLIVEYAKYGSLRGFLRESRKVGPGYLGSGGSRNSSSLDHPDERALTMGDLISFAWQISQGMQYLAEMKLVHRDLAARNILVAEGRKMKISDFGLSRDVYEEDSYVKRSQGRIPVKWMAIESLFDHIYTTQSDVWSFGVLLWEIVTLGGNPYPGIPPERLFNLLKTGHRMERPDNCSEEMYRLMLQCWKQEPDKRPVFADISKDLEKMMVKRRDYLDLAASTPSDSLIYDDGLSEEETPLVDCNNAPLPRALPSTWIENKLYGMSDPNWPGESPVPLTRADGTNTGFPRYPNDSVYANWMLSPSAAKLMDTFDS

[1] = tested on: HeLa cervical adenocarcinoma; test: Cell Proliferation Inhibition Assay (14C-thymidine incorporation), HeLa; format: cell-based; settings: Homo sapiens, HeLa, HeLa cells;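 further: test compound in DMSO added to cells seeded in scintillating 96-well plates, DMSO-only wells as control, uptake of methyl 14C-thymidine into new DNA counted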
A375 malignant melanoma = test: Cell Proliferation Inhibition Assay (14C-thymidine incorporation), A375; format: cell-based; settings: Homo sapiens, A-375, A375 cells;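 further: proliferation measured by radiolabelled thymidine uptake into new DNA, counted in scintillating 96-well plates, compound-treated wells compared with DMSO-only control wells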
c-Src kinase = molecular target: T7, c-Src kinase (Homo sapiens, UniProt P12931); test: c-Src Kinase Assay; format: biochemical; settings: 5 μM ATP
T7 construct: purchased Upstate Biotechnology, Lake Placid, N.Y
Protocol: A mixture of a 10× kinase buffer (80 mM MOPS at pH 7.0, 2 mM EDTA and 100 mM Magnesium Chloride), ATP (5 μM final from a 10 mM stock), a Cdc2 peptide […] (100 μM final from a 2.5 mM stock), γ-^33P ATP (10 μCi/μL stock) and water (for a total of 20 μL/well) was added to each well of a Streptavidin Flashplate.
Test compound in 100% DMSO (0.5 μL) was added to the appropriate wells. Diluted c-Src kinase (human) (Accession Number SWISS-PROT P12931) (Upstate Biotechnology, Lake Placid, N.Y.) (diluted in a buffer consisting of 20 mM MOPS at pH 7.0, 1 mM EDTA, β-mercaptoethanol (0.1%), Brij-35 (0.01%), glycerol (5%), and 1 mg/mL bovine serum albumin) (2.5 μL) was added to the wells to initiate the reactions. The reaction plates were incubated at 30° C. for 40 min. The reaction was terminated by the addition of a 3% phosphoric acid solution (5 μL). The reaction product (10 μL) was spotted onto a P30 filtermat and washed for 5 minutes in phosphoric acid (75 mM). The wash sequence was repeated two more times, followed with one final wash in methanol. The plates were then dried, sealed and read on the TopCount scintillation counter after adding 30 μL scintillation fluid.
as §1
For a series of test concentrations, the IC50 was derived by graphing percent inhibition against the log of the concentrations tested for a given compound with results shown in Table 2
as §2

T3 sequence (P04626 679-1255): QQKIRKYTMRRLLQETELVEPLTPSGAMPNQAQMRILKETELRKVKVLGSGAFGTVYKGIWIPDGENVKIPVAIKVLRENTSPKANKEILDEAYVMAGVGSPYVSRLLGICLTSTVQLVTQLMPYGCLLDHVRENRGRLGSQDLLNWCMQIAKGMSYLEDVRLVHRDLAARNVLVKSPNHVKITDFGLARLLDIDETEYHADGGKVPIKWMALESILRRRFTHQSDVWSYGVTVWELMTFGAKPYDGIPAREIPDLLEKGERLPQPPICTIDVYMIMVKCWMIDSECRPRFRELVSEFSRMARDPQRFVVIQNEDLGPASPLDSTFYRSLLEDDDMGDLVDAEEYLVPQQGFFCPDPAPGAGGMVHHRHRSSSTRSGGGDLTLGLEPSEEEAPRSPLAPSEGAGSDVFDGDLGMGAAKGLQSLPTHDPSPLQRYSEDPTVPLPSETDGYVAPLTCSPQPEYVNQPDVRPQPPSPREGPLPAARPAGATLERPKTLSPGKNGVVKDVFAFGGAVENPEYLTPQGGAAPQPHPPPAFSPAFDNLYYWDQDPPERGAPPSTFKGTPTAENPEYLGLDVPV
T7 sequence (P12931 whole entry): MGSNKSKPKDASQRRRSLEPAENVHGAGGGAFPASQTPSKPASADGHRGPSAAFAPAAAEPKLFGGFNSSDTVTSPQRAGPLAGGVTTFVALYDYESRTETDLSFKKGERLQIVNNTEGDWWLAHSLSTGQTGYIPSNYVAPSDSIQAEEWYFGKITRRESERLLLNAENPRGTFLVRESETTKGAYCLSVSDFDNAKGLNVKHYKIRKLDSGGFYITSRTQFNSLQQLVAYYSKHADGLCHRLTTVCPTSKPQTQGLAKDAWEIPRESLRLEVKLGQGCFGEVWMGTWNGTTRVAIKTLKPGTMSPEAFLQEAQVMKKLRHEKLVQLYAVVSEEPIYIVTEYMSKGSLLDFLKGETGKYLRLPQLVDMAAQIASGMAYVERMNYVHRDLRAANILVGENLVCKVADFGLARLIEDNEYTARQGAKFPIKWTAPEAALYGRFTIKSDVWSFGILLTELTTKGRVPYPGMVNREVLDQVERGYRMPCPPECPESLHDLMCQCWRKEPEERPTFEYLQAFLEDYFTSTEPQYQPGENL
T5 sequence (O08775 786-1343): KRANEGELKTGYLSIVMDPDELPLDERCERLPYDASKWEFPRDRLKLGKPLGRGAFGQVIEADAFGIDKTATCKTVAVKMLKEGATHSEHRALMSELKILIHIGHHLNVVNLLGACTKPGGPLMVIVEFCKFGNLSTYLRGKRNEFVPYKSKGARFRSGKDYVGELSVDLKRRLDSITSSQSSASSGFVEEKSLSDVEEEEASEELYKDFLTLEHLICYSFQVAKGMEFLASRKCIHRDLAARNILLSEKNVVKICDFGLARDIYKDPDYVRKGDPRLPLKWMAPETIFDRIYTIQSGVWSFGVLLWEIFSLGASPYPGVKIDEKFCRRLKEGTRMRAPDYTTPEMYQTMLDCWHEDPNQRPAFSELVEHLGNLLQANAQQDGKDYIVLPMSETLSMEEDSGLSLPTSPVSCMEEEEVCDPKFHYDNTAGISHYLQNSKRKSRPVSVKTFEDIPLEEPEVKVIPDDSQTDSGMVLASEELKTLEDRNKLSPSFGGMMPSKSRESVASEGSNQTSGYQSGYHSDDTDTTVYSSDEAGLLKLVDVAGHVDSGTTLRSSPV
T4 sequence (P07948 whole entry): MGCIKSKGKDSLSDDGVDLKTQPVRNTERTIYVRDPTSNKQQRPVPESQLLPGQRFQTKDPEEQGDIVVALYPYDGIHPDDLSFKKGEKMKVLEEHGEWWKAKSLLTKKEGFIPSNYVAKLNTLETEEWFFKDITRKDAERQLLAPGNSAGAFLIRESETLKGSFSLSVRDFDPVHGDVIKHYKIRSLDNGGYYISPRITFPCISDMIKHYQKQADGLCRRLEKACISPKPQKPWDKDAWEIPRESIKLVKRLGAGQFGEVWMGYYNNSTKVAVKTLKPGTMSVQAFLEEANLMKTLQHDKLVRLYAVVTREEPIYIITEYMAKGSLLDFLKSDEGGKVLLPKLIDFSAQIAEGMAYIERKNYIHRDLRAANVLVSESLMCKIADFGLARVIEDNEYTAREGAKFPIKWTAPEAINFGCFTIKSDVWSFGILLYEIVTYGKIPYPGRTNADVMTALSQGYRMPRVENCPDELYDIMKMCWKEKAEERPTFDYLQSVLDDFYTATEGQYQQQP
T1 sequence (P06493 whole entry): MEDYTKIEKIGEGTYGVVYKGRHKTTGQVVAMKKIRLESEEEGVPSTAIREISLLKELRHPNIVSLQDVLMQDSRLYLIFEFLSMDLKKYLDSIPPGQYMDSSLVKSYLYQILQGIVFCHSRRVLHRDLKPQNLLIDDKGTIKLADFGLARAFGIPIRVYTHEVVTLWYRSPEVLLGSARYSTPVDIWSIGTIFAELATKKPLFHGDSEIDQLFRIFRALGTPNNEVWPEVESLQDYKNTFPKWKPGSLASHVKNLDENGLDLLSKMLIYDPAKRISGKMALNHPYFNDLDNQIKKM
T1 sequence (P14635 whole entry partner): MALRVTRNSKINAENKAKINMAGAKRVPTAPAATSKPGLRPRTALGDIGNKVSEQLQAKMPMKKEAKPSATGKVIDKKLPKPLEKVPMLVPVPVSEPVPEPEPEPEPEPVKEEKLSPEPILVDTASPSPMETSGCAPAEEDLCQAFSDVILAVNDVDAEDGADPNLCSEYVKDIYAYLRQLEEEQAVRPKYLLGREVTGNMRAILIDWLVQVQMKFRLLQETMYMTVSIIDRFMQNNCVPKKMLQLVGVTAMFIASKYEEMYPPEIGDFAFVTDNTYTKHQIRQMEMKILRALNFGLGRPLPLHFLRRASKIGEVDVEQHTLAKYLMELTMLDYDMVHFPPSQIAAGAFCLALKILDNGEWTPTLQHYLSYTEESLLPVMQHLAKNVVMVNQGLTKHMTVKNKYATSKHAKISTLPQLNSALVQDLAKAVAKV

SMILES | IC50 (CDK1) [nM] | IC50 (HCT-116 colon carcinoma) [nM] | IC50 (Aurora-A) [nM] | IC50 (HER2) [nM] | IC50 (Lyn kinase) [nM] | IC50 (VEGF-R2) [nM] | IC50 (RET) [nM] | IC50 [1] [nM] | IC50 (A375 malignant melanoma) [nM] | IC50 (c-Src kinase) [nM]
NC1CCC(NC(=O)c2cccc3[nH]c(-c4n[nH]c5ncc(-c6cncc7ccccc67)cc45)nc23)CC1 (centres unmarked) [Cpd 45, 2-(5-isoquinolin-4-yl-1H-pyrazolo[3,4-b]pyridin-3-yl)-1H-benzoimidazole-4-carboxylic acid (4-amino-cyclohexyl)-amide] | 34.9 | > 10000 | 40 | 31000 | 1.33 | > 100 | > 100000 | 7520 | 28500 | 0.653
CCN(CC)c1ccc(NC(=O)c2cccc3[nH]c(-c4n[nH]c5ncc(-c6cncc7ccccc67)cc45)nc23)c(C)c1 [Cpd 50, 2-(5-isoquinolin-4-yl-1H-pyrazolo[3,4-b]pyridin-3-yl)-1H-benzoimidazole-4-carboxylic acid (4-diethylamino-2-methyl-phenyl)-amide] | 40.6 | 455 | 168 | > 100000 | 5.21 | > 100000 | > 10000 | 258 | 242 | 1.04
CCN(CC)Cc1cccc2[nH]c(-c3n[nH]c4ncc(-c5cccnc5)cc34)nc12 [Cpd 52, diethyl-[2-(5-pyridin-3-yl-1H-pyrazolo[3,4-b]pyridin-3-yl)-1H-benzoimidazol-4-ylmethyl]-amine] | 24.6 | 345 | 3620 | > 100000 | 299 | 1030 | ~10000 | 454 | 247 | 570
CNCc1cncc(-c2cnc3[nH]nc(-c4nc5c(COC)cccc5[nH]4)c3c2)c1 [Cpd 56, {5-[3-(4-methoxymethyl-1H-benzoimidazol-2-yl)-1H-pyrazolo[3,4-b]pyridin-5-yl]-pyridin-3-ylmethyl}-methyl-amine] | 2.54 | 313 | > 1000 | > 100000 | 1080 | 639 | ~1000 | 459 | 268 | 886
COCc1cccc2[nH]c(-c3n[nH]c4ncc(-c5cncc(CNC(C)C)c5C)cc34)nc12 [Cpd 58, isopropyl-{5-[3-(4-methoxymethyl-1H-benzoimidazol-2-yl)-1H-pyrazolo[3,4-b]pyridin-5-yl]-4-methyl-pyridin-3-ylmethyl}-amine] | 339 | 459 | 12400 | > 100000 | 529 | 3900 | > 10000 | 2700 | 168 | 653
COCc1cccc2[nH]c(-c3n[nH]c4ncc(-c5cncc(OC)c5)cc34)nc12 [Cpd 64, 3-(4-methoxymethyl-1H-benzoimidazol-2-yl)-5-(5-methoxy-pyridin-3-yl)-1H-pyrazolo[3,4-b]pyridine] | 80.3 | 26.1 | ~10000 | > 100000 | 4060 | 160 | > 100000 | 1570 | 11.3 | 621
COCc1cccc2[nH]c(-c3n[nH]c4ncc(-c5ccncc5)cc34)nc12 [Cpd 65, 3-(4-methoxymethyl-1H-benzoimidazol-2-yl)-5-pyridin-4-yl-1H-pyrazolo[3,4-b]pyridine] | > 1000 | 62 | > 1000 | > 100000 | 277 | 115 | > 100000 | 3090 | 22.6 | 315
COCc1cccc2[nH]c(-c3n[nH]c4ncc(-c5ccc(N6CCNCC6)nc5)cc34)nc12 [Cpd 69, 3-(4-methoxymethyl-1H-benzoimidazol-2-yl)-5-(6-piperazin-1-yl-pyridin-3-yl)-1H-pyrazolo[3,4-b]pyridine] | > 10000 | 77 | > 1000 | > 100000 | 2890 | ~1000 | > 100000 | 1730 | 18.5 | 597

Next, values leading:

IC50 (CDK1) [nM] | IC50 (HCT-116 colon carcinoma) [nM] | IC50 (Aurora-A) [nM] | IC50 (HER2) [nM] | IC50 (Lyn kinase) [nM] | IC50 (VEGF-R2) [nM] | IC50 (RET) [nM] | IC50 [1] [nM] | IC50 (A375 malignant melanoma) [nM] | IC50 (c-Src kinase) [nM] | SMILES
80.6 | 225 | 230 | ~100000 | 6.31 | 702 | ~10000 | 159 | 194 | 1.4 | Cc1ccccc1NC(=O)c1cccc2[nH]c(-c3n[nH]c4ncc(-c5cncc6ccccc56)cc34)nc12 [Cpd 46, 2-(5-isoquinolin-4-yl-1H-pyrazolo[3,4-b]pyridin-3-yl)-1H-benzoimidazole-4-carboxylic acid o-tolylamide]
18.5 | 488 | ~1000 | > 100000 | 23.6 | ~10 | > 10000 | 300 | 188 | 5 | O=C(Nc1cccnc1)c1cccc2[nH]c(-c3n[nH]c4ncc(-c5cncc6ccccc56)cc34)nc12 [Cpd 48, 2-(5-isoquinolin-4-yl-1H-pyrazolo[3,4-b]pyridin-3-yl)-1H-benzoimidazole-4-carboxylic acid pyridin-3-ylamide]
64.8 | 426 | 154 | > 100000 | 4.35 | > 10000 | ~1000 | 334 | 302 | 1.13 | CN(C)c1ccc(NC(=O)c2cccc3[nH]c(-c4n[nH]c5ncc(-c6cncc7ccccc67)cc45)nc23)cc1 [Cpd 49, 2-(5-isoquinolin-4-yl-1H-pyrazolo[3,4-b]pyridin-3-yl)-1H-benzoimidazole-4-carboxylic acid (4-dimethylamino-phenyl)-amide]
